In assay [1] the target is Histone-lysine N-methyltransferase SUV39H2 (Homo sapiens) (UniProt Q9H5I1). As to the kind of experiment: Selectivity interaction (Methyltransferase screen (Scintillation proximity assays)) EUB0000255b SUV39H2.
Assay [2] addresses Mitogen-activated protein kinase 14 (Homo sapiens, UniProt Q16539). Briefly: Selectivity interaction (KinomeScan (DiscoverX)) EUB0000695a MAPK14. The conditions noted are these: at 100 nM.
For assay [3], the target named is Phosphorylase b kinase gamma catalytic chain, skeletal muscle/heart isoform (Homo sapiens) (UniProt Q16816). Briefly: Selectivity interaction (KinomeScan (DiscoverX)) EUB0000607a PHKG1. The conditions noted are these: at 10 µM.
The target in assay [4] is Serine/threonine-protein kinase Chk2 (Homo sapiens) (UniProt O96017). As to the kind of experiment: Selectivity interaction (ActivX KiNativ screen (kinase selectivity in THP-1 cell lysates)) EUB0000639a CHEK2. The class given is subcellular. Particulars: lysate, at 5 µM.
The target of assay [5] is T1, Testis-specific serine/threonine-protein kinase 3 (Homo sapiens) (UniProt Q96PN8).
T1 sequence (whole entry): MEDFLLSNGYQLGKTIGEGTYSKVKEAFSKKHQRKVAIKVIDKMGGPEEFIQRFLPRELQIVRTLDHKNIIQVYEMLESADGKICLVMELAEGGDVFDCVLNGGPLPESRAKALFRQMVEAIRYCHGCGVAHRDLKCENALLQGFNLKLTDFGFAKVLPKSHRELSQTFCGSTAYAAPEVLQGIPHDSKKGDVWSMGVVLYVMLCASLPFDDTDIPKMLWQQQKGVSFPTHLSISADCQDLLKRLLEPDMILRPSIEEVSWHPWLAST
As to the kind of experiment: Selectivity interaction (Kinase panel (Invitrogen)) EUB0000639a TSSK3. Particulars: at 200 nM.

For assay [6], the target named is Serine/threonine-protein kinase N2 (Homo sapiens, UniProt Q16513). Briefly: Selectivity interaction (ProQinase) EUB0000171b PKN2.
Assay [7] has as its system Tyrosine-protein kinase ABL1 (Homo sapiens), P00519 [Q252H]. As to the kind of experiment: Selectivity interaction (Ambit KINOMEscan and KiNATiv profiling in Jurkat cells) EUB0000090b ABL1. It is filed as cell-based. The conditions noted are these: at 1 µM.
In assay [8] the target is T2, Tyrosine-protein kinase SYK (Homo sapiens, UniProt P43405).
In assay [9] the target is T2, Tyrosine-protein kinase SYK. As to the kind of experiment: Selectivity interaction (Upstate Kinase Profiler service (Millipore)) EUB0000056c SYK. The conditions noted are these: at 1 µM.
Assay [10] addresses Tyrosine-protein kinase ABL2 (Homo sapiens, UniProt P42684). Briefly: Selectivity interaction (KinomeScan (DiscoverX)) EUB0000655a ABL2. Particulars: at 10 µM.
For assay [11], the target named is DNA (cytosine-5)-methyltransferase 1 (Homo sapiens) (UniProt P26358). As to the kind of experiment: Selectivity interaction (Methyltransferase screen (radiometric assays, panel of 8 PRMTs, 21 protein lysine methyltransferases, 3 DNA methyltransferases, and one RNA methyltransferase)) EUB0000271b DNMT1.
For assay [12], the target named is T3, Serine/threonine-protein kinase TAO1 (Homo sapiens) (UniProt Q7L7X3).
T3 sequence (whole entry): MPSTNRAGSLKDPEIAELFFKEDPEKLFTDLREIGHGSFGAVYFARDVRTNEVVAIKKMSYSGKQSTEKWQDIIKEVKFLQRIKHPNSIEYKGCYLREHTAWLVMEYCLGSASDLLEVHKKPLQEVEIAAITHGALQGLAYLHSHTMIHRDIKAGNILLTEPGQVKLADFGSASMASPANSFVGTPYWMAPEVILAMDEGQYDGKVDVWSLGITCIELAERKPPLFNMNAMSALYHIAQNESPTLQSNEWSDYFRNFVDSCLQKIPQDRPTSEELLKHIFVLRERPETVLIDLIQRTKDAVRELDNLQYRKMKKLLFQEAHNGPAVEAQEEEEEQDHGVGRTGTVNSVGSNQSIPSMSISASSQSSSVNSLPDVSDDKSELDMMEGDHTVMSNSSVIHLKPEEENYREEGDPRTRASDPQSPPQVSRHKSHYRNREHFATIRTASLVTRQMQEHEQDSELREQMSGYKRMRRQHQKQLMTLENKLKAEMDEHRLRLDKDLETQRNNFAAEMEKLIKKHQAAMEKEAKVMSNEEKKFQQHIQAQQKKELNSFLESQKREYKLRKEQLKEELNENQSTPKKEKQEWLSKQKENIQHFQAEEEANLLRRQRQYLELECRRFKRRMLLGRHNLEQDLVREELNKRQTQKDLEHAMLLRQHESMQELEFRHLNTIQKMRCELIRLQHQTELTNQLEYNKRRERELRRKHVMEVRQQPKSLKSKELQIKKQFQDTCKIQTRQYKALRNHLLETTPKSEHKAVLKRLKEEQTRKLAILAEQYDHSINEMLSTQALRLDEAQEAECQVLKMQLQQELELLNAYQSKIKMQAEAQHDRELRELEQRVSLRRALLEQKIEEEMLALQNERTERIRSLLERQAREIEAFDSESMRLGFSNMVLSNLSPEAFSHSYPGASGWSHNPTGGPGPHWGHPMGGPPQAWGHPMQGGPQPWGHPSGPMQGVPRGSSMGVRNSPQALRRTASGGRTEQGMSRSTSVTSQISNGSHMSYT
As to the kind of experiment: Selectivity interaction (KinomeScan (DiscoverX)) EUB0001079a TAOK1. The conditions noted are these: at 1 µM.

Assay [13] deals with Serine/threonine-protein kinase Nek6 (Homo sapiens) (UniProt Q9HC98). As to the kind of experiment: Selectivity interaction (KinomeScan (DiscoverX)) EUB0000229b NEK6. The conditions noted are these: at 10 µM.

SMILES strings stand for the structures. Bounds are passed on as bounds.

Serine/threonine-protein kinase N2, sequence (Q16513 whole entry, looked up): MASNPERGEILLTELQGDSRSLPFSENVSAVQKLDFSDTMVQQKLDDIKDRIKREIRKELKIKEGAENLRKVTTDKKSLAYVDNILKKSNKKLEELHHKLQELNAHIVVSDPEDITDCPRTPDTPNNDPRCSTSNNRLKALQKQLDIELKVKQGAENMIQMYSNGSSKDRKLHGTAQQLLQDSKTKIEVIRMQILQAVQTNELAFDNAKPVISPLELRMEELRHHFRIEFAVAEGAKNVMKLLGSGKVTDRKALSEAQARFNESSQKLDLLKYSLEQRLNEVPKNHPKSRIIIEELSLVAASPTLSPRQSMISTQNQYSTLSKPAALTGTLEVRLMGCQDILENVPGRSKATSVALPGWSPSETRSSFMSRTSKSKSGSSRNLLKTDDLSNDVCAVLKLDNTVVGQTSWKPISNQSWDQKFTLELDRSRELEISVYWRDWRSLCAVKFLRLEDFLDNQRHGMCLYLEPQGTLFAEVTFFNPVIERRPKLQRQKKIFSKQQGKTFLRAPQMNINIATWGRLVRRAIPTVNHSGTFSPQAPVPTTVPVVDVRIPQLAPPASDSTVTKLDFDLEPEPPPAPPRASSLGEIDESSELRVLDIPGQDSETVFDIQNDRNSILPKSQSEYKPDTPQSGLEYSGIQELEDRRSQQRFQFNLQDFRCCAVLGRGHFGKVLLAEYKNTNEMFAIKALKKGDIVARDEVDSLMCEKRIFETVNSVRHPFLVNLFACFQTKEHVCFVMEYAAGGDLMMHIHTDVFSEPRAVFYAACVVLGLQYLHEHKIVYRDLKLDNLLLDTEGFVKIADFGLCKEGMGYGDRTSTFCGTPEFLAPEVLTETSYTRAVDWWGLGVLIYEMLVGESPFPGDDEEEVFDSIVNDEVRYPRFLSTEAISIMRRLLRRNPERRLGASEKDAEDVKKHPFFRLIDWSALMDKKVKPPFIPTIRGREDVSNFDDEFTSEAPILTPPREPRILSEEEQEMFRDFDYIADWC
Histone-lysine N-methyltransferase SUV39H2 (Homo sapiens), sequence (Q9H5I1 whole entry): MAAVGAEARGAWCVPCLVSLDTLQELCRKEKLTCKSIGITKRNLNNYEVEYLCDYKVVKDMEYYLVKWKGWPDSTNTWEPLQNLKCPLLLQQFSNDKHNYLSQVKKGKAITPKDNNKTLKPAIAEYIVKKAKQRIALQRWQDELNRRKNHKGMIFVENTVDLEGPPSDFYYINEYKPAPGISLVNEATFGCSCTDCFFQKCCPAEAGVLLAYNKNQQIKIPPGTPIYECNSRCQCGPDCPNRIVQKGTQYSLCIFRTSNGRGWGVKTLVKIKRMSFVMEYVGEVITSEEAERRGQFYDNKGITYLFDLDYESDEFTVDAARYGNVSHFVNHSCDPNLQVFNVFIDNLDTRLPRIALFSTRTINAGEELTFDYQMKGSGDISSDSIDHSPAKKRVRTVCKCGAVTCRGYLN
DNA (cytosine-5)-methyltransferase 1 (Homo sapiens), sequence (P26358 whole entry): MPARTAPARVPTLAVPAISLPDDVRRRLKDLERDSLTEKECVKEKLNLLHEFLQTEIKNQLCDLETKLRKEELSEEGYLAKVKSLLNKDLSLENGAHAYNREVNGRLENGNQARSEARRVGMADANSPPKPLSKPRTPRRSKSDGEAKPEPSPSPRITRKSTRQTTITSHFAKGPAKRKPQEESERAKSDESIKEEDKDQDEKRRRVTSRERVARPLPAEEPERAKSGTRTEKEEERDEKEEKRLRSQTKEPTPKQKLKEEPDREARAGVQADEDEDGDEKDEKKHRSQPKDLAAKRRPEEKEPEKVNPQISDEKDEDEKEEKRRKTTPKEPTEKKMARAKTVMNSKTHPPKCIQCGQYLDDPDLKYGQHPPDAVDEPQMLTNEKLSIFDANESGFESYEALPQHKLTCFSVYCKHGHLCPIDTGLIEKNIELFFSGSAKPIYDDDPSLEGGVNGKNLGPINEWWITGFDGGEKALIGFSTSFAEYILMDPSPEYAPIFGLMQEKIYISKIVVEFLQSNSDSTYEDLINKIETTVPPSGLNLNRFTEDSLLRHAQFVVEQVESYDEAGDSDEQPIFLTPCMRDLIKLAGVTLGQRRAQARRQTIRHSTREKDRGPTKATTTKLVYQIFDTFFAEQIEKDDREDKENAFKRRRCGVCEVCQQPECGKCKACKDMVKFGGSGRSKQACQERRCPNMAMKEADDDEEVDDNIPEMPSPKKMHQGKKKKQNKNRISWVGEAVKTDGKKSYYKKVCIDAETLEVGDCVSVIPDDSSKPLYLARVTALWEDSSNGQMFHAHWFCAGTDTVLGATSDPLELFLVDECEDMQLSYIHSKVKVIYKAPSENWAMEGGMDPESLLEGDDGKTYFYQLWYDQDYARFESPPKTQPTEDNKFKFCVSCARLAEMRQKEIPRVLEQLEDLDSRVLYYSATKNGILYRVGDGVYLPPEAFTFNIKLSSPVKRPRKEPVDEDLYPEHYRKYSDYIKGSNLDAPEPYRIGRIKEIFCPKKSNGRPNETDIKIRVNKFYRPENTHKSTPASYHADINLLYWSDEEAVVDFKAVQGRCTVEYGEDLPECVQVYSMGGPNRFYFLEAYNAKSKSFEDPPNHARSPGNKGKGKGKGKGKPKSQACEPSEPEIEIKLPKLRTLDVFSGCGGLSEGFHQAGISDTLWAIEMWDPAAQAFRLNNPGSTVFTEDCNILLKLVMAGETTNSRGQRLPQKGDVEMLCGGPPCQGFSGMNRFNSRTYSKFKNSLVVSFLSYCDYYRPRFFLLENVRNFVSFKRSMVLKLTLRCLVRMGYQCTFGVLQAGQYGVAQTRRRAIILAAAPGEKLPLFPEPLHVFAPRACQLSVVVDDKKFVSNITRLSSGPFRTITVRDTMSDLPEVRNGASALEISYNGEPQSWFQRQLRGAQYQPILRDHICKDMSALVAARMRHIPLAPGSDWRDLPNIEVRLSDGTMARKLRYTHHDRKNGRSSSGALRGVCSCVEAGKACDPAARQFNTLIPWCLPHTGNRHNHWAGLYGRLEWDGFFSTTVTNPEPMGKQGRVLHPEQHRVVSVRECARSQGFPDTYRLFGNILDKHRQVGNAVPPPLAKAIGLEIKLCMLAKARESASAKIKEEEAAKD
Phosphorylase b kinase gamma catalytic chain, skeletal muscle/heart isoform (Homo sapiens), sequence (Q16816 whole entry, looked up, canonical isoform): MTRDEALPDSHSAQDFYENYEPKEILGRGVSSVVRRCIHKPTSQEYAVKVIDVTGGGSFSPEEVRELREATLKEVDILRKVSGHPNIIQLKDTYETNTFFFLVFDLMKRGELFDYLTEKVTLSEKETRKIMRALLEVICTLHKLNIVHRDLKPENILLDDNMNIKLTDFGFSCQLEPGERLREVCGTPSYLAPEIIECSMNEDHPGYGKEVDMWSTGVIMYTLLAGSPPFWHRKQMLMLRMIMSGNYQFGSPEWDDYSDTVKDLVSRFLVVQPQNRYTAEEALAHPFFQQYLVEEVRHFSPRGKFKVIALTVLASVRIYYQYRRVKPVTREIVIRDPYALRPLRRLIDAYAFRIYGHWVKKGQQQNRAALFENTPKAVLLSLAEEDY
Serine/threonine-protein kinase Nek6 (Homo sapiens), sequence (Q9HC98 whole entry): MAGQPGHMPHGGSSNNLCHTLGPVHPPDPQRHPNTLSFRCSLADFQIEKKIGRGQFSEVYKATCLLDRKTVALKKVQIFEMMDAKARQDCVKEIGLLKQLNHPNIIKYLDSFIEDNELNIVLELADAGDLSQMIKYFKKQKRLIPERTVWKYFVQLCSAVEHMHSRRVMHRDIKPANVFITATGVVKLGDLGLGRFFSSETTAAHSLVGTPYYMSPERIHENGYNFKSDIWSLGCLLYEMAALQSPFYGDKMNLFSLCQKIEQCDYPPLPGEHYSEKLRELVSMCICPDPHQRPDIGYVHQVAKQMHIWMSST
Serine/threonine-protein kinase Chk2 (Homo sapiens), sequence (O96017 whole entry): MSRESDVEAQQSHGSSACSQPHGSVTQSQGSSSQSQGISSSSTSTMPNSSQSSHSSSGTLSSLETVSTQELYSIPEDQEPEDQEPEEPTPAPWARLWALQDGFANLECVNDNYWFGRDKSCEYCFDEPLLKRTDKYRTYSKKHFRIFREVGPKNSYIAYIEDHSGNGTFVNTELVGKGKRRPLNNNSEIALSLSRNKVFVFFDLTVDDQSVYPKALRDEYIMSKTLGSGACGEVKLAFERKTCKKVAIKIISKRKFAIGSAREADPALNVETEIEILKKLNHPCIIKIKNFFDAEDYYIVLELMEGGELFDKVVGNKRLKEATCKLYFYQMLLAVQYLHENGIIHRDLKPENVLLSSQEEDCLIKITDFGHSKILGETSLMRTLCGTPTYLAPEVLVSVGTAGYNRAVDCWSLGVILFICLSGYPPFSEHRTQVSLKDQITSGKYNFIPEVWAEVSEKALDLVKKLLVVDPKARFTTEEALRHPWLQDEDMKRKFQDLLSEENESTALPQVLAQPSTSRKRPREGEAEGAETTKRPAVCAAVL
Mitogen-activated protein kinase 14, sequence (Q16539 whole entry, canonical isoform): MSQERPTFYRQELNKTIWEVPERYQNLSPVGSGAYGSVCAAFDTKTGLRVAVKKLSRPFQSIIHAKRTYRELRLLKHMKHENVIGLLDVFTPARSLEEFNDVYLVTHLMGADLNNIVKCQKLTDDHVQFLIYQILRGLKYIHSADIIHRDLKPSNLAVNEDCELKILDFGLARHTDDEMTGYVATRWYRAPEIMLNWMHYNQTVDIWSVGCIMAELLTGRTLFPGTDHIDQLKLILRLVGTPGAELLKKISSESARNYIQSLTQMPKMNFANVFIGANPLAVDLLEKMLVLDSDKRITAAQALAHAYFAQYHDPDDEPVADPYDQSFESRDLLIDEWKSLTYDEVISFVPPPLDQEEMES

Take `COCCN1CCC(c2cc(CN(C)C(=O)c3cccc(Oc4ccccc4)c3)ccn2)CC1`: the results for the % activity in assay [1] (at 1 µM) and in assay [1] (at 10 µM) were above 95% and above 90%, respectively.

The compound `Cc1cc(F)c(C(=O)Nc2cccc(-c3nncn3C(C)C)n2)cc1-n1cnc(C2CC2)c1` registered a % of control in [2] of 100%.

Turning to `CNC(=O)Nc1ccc(-c2nc(N3CC4CCC(C3)O4)c3cnn(C4CCC5(CC4)OCCO5)c3n2)cc1`, the % of control in assay [3] was 100%.

On to `CC[C@@H]1[C@H](F)C(=O)N[C@@H]1COc1nccc2cc(C(N)=O)c(OC)cc12` [ZIMLOVISERTIB], for which the % of inhibition in assay [4] was 65.9%; in assay [5] it was 16.3%.

Regarding `C=CC(=O)Nc1cccc(C(=O)Nc2ccc(Nc3cc(-c4[nH]c(SC)nc4C)ccn3)cc2)c1`, the % of control in assay [6] (at 1 µM) came to 90%; in [6] (at 5 µM) it was 76%.

`CN(C)C/C=C/C(=O)Nc1ccc(C(=O)N2CCCC(Nc3ncc(Cl)c(-c4c[nH]c5ccccc45)n3)C2)cc1` (stereo unspecified) came in with a % of control in assay [7] of 100%.

For the compound `CCc1cccc(CC)c1NC(=O)c1nn(C)c2c1CCc1cnc(Nc3ccc(C(=O)NC4CCN(C)CC4)cc3OC(F)(F)F)nc1-2`, the IC50 in assay [8] was above 10 µM.

Consider `Cc1ccc(-c2ccc3c(ccc4sc5c(c43)NC[C@@H](C)NC5=O)n2)cn1`, for which the % of inhibition in [9] was -7%.

For the compound `CN(C)CCOc1ccc(-c2nc(-c3ccncc3)c(-c3ccc4c(c3)CC/C4=N\O)[nH]2)cc1`, the % of control in assay [10] amounted to 55%.

As to `Cc1cc(C)cc([C@@H]2c3cc(C)ccc3NC(=O)CN2C(=O)c2ccc(Br)s2)c1`, the % of activity in assay [11] (at 1 µM) stood at 98.3%; in assay [11] (at 10 µM), 97.7%.

`Nc1cnc(N2CCc3cc(S(=O)(=O)Nc4c(F)cc(Cl)cc4F)cc(N4CCCC4=O)c32)nc1` [TP-020n]: the % of control in [12] worked out at 80%.

In [13], `COc1cc(N(C)c2ccnc3ccc(C(F)(F)F)cc23)cc(OC)c1OC` displayed a % binding of 100%.

For the origin of these results see ChEMBL document CHEMBL5465560, “Selectivity Literature for EUbOPEN Chemogenomic Library” (2024).
